From ChEMBL document CHEMBL5465560, “Selectivity Literature for EUbOPEN Chemogenomic Library” (2024)
One block for each compound: values may come before it.

Key:
[1] = target: T1, Dual specificity mitogen-activated protein kinase kinase 7 (Homo sapiens) (UniProt O14733); test: Selectivity interaction (KinomeScan (DiscoverX)) EUB0000666a MAP2K7; conditions: at 10 µM
T1 sequence (whole entry): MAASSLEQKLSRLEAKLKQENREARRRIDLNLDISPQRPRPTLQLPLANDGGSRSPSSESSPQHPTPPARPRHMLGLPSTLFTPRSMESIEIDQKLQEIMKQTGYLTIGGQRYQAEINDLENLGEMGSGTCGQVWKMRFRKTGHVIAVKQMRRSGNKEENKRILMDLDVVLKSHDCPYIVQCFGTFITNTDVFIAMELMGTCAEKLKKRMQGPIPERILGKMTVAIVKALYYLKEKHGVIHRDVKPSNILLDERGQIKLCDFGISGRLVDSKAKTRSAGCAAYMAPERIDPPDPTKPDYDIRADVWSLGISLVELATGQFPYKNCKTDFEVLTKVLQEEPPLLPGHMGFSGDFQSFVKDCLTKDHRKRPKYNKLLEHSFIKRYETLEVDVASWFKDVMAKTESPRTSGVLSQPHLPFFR

[2] = target: Hepatocyte growth factor receptor (Homo sapiens, UniProt P08581); test: Selectivity interaction (Kinase panel (Invitrogen)) EUB0000639a MET; conditions: at 200 nM
[3] = target: T2, Dual specificity mitogen-activated protein kinase kinase 4 (Homo sapiens) (UniProt P45985); test: Selectivity interaction (ActivX KiNativ screen (kinase selectivity in THP-1 cell lysates)) EUB0000639a MAP2K4; format: subcellular; conditions: lysate, at 0.01 µM
T2 sequence (whole entry): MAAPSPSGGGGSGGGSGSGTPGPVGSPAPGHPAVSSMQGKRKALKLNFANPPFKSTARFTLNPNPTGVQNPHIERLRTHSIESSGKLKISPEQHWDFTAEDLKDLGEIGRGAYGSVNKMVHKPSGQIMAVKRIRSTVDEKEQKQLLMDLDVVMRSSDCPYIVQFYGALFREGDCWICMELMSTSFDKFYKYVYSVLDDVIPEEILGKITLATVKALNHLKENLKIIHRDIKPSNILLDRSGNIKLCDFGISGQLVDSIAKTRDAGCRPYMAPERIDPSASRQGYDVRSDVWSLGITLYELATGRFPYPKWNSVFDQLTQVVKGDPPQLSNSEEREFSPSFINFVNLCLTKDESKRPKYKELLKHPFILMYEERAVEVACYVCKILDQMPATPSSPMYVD

[4] = target: T3, Protein arginine N-methyltransferase 9 (Homo sapiens, UniProt Q6P2P2); test: Selectivity interaction (Scintillation proximity assays) EUB0000255b PRMT9
T3 sequence (Q6P2P2 whole entry): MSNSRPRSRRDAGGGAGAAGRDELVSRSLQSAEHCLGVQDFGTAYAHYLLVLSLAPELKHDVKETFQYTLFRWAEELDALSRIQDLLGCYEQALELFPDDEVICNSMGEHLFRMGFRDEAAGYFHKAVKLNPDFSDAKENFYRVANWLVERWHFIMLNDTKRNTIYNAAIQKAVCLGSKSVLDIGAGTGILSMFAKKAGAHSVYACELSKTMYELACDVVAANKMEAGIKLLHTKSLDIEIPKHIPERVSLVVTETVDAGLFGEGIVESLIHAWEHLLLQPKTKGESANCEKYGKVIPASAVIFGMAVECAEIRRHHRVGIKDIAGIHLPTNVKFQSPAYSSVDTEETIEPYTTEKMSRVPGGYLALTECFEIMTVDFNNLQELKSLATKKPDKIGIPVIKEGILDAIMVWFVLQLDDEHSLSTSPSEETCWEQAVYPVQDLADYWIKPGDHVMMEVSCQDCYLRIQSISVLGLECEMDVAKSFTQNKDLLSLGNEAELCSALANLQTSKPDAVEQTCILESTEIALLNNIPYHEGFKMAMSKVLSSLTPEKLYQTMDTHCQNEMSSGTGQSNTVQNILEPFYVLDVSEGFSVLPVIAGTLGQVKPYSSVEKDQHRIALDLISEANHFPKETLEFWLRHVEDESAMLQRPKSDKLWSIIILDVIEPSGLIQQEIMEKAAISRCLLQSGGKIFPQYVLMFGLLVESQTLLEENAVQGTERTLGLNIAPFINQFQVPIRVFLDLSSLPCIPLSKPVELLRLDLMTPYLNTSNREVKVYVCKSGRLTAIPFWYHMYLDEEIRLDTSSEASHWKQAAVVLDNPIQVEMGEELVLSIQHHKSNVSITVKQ

[5] = target: RAC-gamma serine/threonine-protein kinase (Homo sapiens, UniProt Q9Y243); test: Selectivity interaction (Ambit KINOMEscan and KiNATiv profiling in Jurkat cells) EUB0000090b AKT3; format: cell-based; conditions: at 1 µM
[6] = target: T4, Tyrosine-protein kinase ITK/TSK (Homo sapiens) (UniProt Q08881); test: Selectivity interaction (Ambit KINOMEscan and KiNATiv profiling in Jurkat cells) EUB0000090b ITK; format: cell-based; conditions: at 1 µM
T4 sequence (whole entry): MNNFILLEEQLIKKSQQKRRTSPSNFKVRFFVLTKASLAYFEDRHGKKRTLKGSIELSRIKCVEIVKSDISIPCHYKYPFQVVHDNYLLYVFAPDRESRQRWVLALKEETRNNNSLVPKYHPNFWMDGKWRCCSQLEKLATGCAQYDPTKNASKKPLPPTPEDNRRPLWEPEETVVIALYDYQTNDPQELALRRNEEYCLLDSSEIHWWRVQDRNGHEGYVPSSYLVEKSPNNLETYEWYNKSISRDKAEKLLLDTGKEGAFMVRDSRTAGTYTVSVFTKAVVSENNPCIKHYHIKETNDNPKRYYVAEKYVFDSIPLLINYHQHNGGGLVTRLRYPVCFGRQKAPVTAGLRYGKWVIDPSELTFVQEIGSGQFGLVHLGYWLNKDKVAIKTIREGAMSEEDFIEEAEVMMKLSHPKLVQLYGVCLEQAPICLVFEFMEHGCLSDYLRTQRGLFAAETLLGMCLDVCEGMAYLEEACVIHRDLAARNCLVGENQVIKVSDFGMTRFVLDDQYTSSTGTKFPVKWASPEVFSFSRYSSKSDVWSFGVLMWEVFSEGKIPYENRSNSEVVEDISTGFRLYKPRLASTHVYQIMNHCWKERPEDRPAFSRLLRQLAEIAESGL

[7] = target: Ribosomal protein S6 kinase alpha-4 (Homo sapiens) (UniProt O75676); test: Selectivity interaction (KinomeScan (DiscoverX)) EUB0000045b RPS6KA4
[8] = target: Ribosomal protein S6 kinase alpha-1 (Homo sapiens, UniProt Q15418); test: Selectivity interaction (KinomeScan (DiscoverX)) EUB0000618a RPS6KA1; conditions: at 10 µM
[9] = target: STE20-like serine/threonine-protein kinase (Homo sapiens, UniProt Q9H2G2); test: Selectivity interaction (KinomeScan (DiscoverX)) EUB0000618a SLK; conditions: at 10 µM
Chain of STE20-like serine/threonine-protein kinase (Q9H2G2 whole entry, looked up): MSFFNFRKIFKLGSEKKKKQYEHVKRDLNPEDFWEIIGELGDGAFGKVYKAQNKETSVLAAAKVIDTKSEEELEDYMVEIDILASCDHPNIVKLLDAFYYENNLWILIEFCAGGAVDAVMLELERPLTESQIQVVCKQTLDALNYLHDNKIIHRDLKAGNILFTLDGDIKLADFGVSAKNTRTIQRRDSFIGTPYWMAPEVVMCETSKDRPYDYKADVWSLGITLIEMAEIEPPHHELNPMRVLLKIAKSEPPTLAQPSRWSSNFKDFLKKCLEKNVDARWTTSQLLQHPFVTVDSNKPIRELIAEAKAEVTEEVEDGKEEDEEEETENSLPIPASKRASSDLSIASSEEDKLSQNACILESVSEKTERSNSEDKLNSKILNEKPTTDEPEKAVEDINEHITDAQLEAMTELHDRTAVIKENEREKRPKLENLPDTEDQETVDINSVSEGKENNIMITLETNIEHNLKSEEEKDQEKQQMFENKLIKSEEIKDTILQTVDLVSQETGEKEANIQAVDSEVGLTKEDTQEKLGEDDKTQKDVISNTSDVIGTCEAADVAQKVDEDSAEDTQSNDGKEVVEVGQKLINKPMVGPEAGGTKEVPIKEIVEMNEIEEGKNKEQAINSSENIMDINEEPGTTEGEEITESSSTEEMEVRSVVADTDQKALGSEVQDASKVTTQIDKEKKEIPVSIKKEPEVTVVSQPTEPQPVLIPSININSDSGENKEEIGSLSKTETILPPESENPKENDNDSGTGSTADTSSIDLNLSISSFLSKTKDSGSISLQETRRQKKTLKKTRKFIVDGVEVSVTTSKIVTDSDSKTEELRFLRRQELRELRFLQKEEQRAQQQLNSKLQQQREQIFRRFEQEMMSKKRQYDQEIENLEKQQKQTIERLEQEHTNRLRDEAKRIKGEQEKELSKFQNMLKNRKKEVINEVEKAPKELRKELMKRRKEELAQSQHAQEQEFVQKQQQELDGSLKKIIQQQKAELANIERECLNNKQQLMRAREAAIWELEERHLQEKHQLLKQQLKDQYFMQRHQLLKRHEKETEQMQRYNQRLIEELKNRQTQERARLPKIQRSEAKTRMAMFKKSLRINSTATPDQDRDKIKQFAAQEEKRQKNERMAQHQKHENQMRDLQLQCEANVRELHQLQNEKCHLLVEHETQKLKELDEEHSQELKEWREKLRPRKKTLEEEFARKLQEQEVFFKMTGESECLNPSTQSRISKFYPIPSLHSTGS

Chain of Ribosomal protein S6 kinase alpha-4 (Homo sapiens) (O75676 whole entry, looked up): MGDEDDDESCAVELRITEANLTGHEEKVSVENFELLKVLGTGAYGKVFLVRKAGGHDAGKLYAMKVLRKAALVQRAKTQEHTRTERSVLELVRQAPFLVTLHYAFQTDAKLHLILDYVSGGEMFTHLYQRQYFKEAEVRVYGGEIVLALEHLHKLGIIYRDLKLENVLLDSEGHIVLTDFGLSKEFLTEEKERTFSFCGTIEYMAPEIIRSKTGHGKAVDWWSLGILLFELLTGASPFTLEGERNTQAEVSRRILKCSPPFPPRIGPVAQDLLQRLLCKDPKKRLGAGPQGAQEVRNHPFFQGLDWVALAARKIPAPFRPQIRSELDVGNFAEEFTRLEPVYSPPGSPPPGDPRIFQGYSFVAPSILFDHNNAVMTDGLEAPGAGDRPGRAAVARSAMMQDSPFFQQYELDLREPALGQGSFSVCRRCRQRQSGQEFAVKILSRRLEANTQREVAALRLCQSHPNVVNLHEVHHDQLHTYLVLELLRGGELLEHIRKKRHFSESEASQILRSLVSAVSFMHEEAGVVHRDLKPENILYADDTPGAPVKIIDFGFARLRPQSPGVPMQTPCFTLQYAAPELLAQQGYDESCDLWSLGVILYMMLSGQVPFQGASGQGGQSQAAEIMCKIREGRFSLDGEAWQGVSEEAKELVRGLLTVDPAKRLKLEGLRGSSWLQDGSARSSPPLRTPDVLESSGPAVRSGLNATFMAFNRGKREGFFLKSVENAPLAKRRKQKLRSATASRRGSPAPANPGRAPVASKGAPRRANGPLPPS
Chain of Hepatocyte growth factor receptor (P08581 whole entry): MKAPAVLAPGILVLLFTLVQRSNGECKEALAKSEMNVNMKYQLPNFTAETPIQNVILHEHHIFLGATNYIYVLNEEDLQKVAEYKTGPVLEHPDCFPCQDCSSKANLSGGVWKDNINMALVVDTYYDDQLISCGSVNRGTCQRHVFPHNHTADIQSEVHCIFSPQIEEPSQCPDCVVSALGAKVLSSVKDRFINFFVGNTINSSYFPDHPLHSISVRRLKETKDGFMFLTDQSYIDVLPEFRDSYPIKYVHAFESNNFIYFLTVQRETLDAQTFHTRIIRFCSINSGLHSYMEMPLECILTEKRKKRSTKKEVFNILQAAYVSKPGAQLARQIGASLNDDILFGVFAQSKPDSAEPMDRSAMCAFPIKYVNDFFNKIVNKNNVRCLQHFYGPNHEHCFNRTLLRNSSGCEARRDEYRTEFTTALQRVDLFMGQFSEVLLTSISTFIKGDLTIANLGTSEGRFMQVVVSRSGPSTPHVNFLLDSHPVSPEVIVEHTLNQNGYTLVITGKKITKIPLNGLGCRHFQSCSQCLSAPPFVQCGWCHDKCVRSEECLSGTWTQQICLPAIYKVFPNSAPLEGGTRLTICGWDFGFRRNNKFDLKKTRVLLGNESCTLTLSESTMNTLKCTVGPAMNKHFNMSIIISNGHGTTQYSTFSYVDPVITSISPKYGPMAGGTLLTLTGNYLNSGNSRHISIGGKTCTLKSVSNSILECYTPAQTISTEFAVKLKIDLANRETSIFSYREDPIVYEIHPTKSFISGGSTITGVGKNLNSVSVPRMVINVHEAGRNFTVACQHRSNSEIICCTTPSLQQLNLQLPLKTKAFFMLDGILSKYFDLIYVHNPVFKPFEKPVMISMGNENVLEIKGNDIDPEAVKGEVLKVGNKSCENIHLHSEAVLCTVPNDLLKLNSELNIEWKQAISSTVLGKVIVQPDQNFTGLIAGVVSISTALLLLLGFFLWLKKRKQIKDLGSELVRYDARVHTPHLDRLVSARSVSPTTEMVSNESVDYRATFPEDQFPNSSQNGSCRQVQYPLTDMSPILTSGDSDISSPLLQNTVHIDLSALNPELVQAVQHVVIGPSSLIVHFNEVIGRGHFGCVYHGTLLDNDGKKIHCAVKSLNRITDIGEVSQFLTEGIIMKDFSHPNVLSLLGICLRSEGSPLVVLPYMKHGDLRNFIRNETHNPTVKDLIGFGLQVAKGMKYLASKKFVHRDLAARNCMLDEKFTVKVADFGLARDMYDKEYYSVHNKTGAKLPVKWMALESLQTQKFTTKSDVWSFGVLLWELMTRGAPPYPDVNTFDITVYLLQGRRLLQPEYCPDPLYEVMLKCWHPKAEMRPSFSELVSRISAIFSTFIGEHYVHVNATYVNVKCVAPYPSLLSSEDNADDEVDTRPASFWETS
Chain of RAC-gamma serine/threonine-protein kinase (Q9Y243 whole entry): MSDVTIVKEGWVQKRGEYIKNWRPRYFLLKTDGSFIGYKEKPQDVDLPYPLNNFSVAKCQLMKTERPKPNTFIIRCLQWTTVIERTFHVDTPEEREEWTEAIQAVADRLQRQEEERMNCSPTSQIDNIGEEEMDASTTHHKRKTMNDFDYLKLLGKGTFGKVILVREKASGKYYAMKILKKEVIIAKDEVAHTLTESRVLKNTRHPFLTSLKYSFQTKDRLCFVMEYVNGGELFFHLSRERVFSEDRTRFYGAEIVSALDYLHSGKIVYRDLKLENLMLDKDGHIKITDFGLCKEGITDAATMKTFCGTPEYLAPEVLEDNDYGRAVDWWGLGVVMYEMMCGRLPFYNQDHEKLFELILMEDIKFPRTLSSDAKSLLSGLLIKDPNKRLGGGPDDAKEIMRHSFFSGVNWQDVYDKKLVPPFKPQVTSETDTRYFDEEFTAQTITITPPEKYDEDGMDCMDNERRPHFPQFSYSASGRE
Chain of Ribosomal protein S6 kinase alpha-1 (Q15418 whole entry): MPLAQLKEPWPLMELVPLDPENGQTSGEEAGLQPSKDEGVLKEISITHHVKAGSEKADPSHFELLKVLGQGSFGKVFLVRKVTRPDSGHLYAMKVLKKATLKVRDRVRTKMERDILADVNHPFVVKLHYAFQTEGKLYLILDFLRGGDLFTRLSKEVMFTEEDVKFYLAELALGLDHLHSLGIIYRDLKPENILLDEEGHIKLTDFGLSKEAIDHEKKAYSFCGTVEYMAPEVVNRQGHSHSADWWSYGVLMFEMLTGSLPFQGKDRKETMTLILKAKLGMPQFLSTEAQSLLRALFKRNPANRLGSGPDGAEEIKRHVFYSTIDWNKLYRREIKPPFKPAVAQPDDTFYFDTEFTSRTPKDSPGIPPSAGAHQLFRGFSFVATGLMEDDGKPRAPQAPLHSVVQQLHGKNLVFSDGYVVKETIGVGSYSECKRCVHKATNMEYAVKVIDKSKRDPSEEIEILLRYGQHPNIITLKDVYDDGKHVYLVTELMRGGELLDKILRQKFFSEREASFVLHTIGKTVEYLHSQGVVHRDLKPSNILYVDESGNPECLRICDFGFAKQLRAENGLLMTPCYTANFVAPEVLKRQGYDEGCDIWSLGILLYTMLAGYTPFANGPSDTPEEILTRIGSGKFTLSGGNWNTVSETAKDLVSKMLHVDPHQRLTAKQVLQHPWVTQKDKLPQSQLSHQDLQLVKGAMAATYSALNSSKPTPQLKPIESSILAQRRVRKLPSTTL

SMILES: O=C(NOC[C@H](O)CO)c1ccc(F)c(F)c1Nc1ccc(I)cc1F
% of control [1]: 100%

% of inhibition [2]: 2.16% | % of inhibition [3]: -5.8%
SMILES: CC[C@@H]1[C@H](F)C(=O)N[C@@H]1COc1nccc2cc(C(N)=O)c(OC)cc12 [ZIMLOVISERTIB]

SMILES: COCCN1CCC(c2cc(CN(C)C(=O)c3cccc(Oc4ccccc4)c3)ccn2)CC1
IC50 [4]: > 10 µM

SMILES: CN(C)C/C=C/C(=O)Nc1ccc(C(=O)N2CCCC(Nc3ncc(Cl)c(-c4c[nH]c5ccccc45)n3)C2)cc1 (stereo not given)
% of control [5]: 96% | % of control [6]: 91%

SMILES: C=CC(=O)Nc1cc(-n2c(=O)ccc3cnc4ccc(-c5ccc(NS(C)(=O)=O)cc5)cc4c32)ccc1C
% of control ([7]; at 1 µM): 100% | % of control ([7]; at 10 µM): 100%

SMILES: O[C@H]1CC[C@H](Nc2ncc3nc(Nc4c(F)cc(F)cc4F)n([C@H]4CCOC4)c3n2)CC1
% of control [8]: 70% | % of control [9]: 88%
